Converted amounts (≈) assume the structure as drawn. Values belong to the compound of their own block, whether it stands above or below them. Where a SMILES comes first, the peptide text is derived from it. [ ]: non-standard residue; d: D form. ξ: configuration not given here. ξW = NC(Cc1c[nH]c2ccccc12)C(=O)O
Experiments:
Enterococcus faecium [1] = test: Antimicrobial activity against Vancomycin-resistant Enterococcus faecium assessed as reduction in microbial growth; format: functional
Staphylococcus aureus [2] = test: Antibacterial activity against Vancomycin-intermediate Staphylococcus aureus NRS1 assessed as bacterial growth inhibition; format: functional
Enterococcus faecalis [3] = test: Antimicrobial activity against Vancomycin-sensitive Enterococcus faecalis ATCC 29212 assessed as reduction in microbial growth; format: functional
Enterococcus faecium [4] = test: Antimicrobial activity against Vancomycin-resistant (Van A) Enterococcus faecium ATCC 51559 assessed as reduction in microbial growth; format: functional
[5] = Binding affinity to D-Ala-D-Lac
Staphylococcus aureus [6] = test: Antibacterial activity against Vancomycin-intermediate Staphylococcus aureus 3797 assessed as inhibition in bacterial growth; format: functional
Staphylococcus aureus [7] = test: Antibacterial activity against Vancomycin-resistant Staphylococcus aureus assessed as bacterial growth inhibition measured after 48 hrs by microbroth dilution method; format: functional
Staphylococcus aureus [8] = test: Antibacterial activity against Vancomycin-intermediate Staphylococcus aureus assessed as bacterial growth inhibition measured after 24 hrs by microbroth dilution method; format: functional
[9] = Binding affinity to D-Ala-D-Ala
Enterococcus faecalis [10] = test: Antimicrobial activity against Vancomycin - resistant Enterococcus faecalis assessed as inhibition of bacterial growth; format: functional
Enterococcus faecium [11] = test: Antimicrobial activity against Vancomycin-resistant (Van M) Enterococcus faecium ATCC 51559 assessed as reduction in microbial growth; format: functional
Staphylococcus aureus [12] = test: Antibacterial activity against Vancomycin-intermediate Staphylococcus aureus Mu50 assessed as bacterial growth inhibition; format: functional
Pseudomonas aeruginosa [13] = test: Antibacterial activity against extensively drug resitant Pseudomonas aeruginosa; format: functional, organism-based
Pseudomonas aeruginosa [14] = test: Antibacterial activity against Pseudomonas aeruginosa ATCC 27853 assessed as bacterial growth inhibition measured after 24 hrs by microbroth dilution method; format: functional
Pseudomonas aeruginosa [15] = test: Synergistic antibacterial activity against multidrug-resistant Pseudomonas aeruginosa ATCC 27853 assessed as reduction in bacterial viability after 12 hrs in presence of 1/2 MIC of vancomycin; format: functional
Staphylococcus aureus [16] = test: Antimicrobial activity against Vancomycin-resistant Staphylococcus aureus incubated for 20 hrs by broth dilution method; format: functional
Acinetobacter baumannii = test: Antibacterial activity against Acinetobacter baumannii R4942 assessed as reduction in bacterial growth by broth microdilution method; format: functional
Enterobacter cloacae = test: Antibacterial activity against Enterobacter cloacae NDM-1 assessed as reduction in bacterial growth by broth microdilution method; format: functional
[17] = Enterococcus faecium, read-out: MIC
[18] = Enterococcus faecium, ATCC 51559, read-out: MIC

Compound: CN[C@H](CC(C)C)C(=O)N[C@H]1C(=O)N[C@@H](CC(N)=O)C(=O)N[C@H]2C(=O)N[C@H]3C(=O)N[C@H](C(=O)N[C@H](C(=O)O)c4cc(O)cc(O)c4-c4cc3ccc4O)[C@H](O)c3ccc(c(Cl)c3)Oc3cc2cc(c3O[C@@H]2O[C@H](CO)[C@@H](O)[C@H](O)[C@H]2O[C@H]2C[C@](C)(NCc3cccc(OCCSSCCOc4cccc(CN[C@@]5(C)C[C@H](O[C@H]6[C@H](Oc7c8cc9cc7Oc7ccc(cc7Cl)[C@@H](O)[C@@H](NC(=O)[C@@H](CC(C)C)NC)C(=O)N[C@@H](CC(N)=O)C(=O)N[C@H]9C(=O)N[C@H]7C(=O)N[C@H](C(=O)N[C@H](C(=O)O)c9cc(O)cc(O)c9-c9cc7ccc9O)[C@H](O)c7ccc(c(Cl)c7)O8)O[C@H](CO)[C@@H](O)[C@@H]6O)O[C@@H](C)[C@H]5O)c4)c3)[C@H](O)[C@H](C)O2)Oc2ccc(cc2Cl)[C@H]1O
MIC (Enterococcus faecium [1]; [17]): 1 µg/mL | MIC (Staphylococcus aureus [2]): 8 µg/mL

Compound: CCCCCCCC[n+]1ccc(CN[C@@]2(C)C[C@H](O[C@H]3[C@H](Oc4c5cc6cc4Oc4ccc(cc4Cl)[C@@H](O)[C@@H](NC(=O)[C@@H](CC(C)C)NC)C(=O)N[C@@H](CC(N)=O)C(=O)N[C@H]6C(=O)N[C@H]4C(=O)N[C@H](C(=O)N[C@H](C(=O)NC(=O)[C@H](O)[C@@H](O)[C@H](O[C@@H]6O[C@H](CO)[C@@H](O)[C@H](O)[C@H]6O)[C@H](O)CO)c6cc(O)cc(O)c6-c6cc4ccc6O)[C@H](O)c4ccc(c(Cl)c4)O5)O[C@H](CO)[C@@H](O)[C@@H]3O)O[C@@H](C)[C@H]2O)cc1
MIC (Enterococcus faecium [1]; [17]): 0.09 µM | MIC (Enterococcus faecalis [3]): 0.1 µM | MIC (Enterococcus faecium [4]; [18]): 0.09 µM | MIC (Staphylococcus aureus [2]): 0.1 µM | Ka [5]: 5.7 10^4/M

Compound: CCCCCCCCCCC(=O)N[C@@H](CCCCN)C(=O)N[C@@H](CCCCN)C(=O)NC(CCCCNC(=O)[C@H]1NC(=O)[C@H]2NC(=O)[C@H](NC(=O)[C@@H]3NC(=O)[C@H](CC(N)=O)NC(=O)[C@H](NC(=O)[C@@H](CC(C)C)NC)[C@H](O)c4ccc(c(Cl)c4)Oc4cc3cc(c4O[C@@H]3O[C@H](CO)[C@@H](O)[C@H](O)[C@H]3O[C@H]3C[C@](C)(N)[C@H](O)[C@H](C)O3)Oc3ccc(cc3Cl)[C@H]2O)c2ccc(O)c(c2)-c2c(O)cc(O)cc21)C(N)=O (some centres not stated)
MIC (Enterococcus faecium [4]; [18]): 2 µg/mL | MIC (Staphylococcus aureus [2]): 0.03 µg/mL | MIC (Staphylococcus aureus [6]): 0.06 µg/mL

Compound: N=C(N)NCCC[C@H](NC(=O)[C@H](CCCNC(=N)N)NC(=O)[C@H](Cc1c[nH]c2ccccc12)NC(=O)[C@H](Cc1c[nH]c2ccccc12)NC(=O)[C@H](CCCNC(=N)N)NC(=O)[C@H](CCCNC(=N)N)NC(=O)[C@H](Cc1c[nH]c2ccccc12)NC(=O)C(Cc1c[nH]c2ccccc12)NC(=O)[C@H](CCCNC(=N)N)NC(=O)[C@H](Cc1c[nH]c2ccccc12)NC(=O)[C@H](Cc1c[nH]c2ccccc12)NC(=O)[C@@H](N)CCCNC(=N)N)C(=O)O (some centres not stated) (H-RWWR[ξW]WRRWWRR-OH)
MIC (Staphylococcus aureus [7]): 1 µg/mL (≈ 0.483 µM) | MIC (Staphylococcus aureus [8]): 4 µg/mL (≈ 1.93 µM)

Compound: CN[C@H](CC(C)C)C(=O)N[C@H]1C(=O)N[C@@H](CC(N)=O)C(=O)N[C@H]2C(=O)N[C@H]3C(=O)N[C@H](C(=O)N[C@H](C(=O)NCCC[N+](C)(C)C)c4cc(O)cc(O)c4-c4cc3ccc4O)[C@H](O)c3ccc(c(Cl)c3)Oc3cc2cc(c3O[C@@H]2O[C@H](CO)[C@@H](O)[C@H](O)[C@H]2O[C@H]2C[C@](C)(NCc3ccc(-c4ccc(Cl)cc4)cc3)[C@H](O)[C@H](C)O2)Oc2ccc(cc2Cl)[C@H]1O
MIC (Enterococcus faecium [1]): 0.01 µg/mL | MIC (Enterococcus faecium [4]; [18]): 0.01 µg/mL

Ka [9]: 1.7 10^2/M | Ka [5]: 1.1 10^1/M
Compound: CN[C@H](CC(C)C)C(=O)N[C@H]1C(=O)N[C@@H](CC(N)=O)C(=O)N[C@H]2C(=S)N[C@H]3C(=O)N[C@H](C(=O)N[C@H](C(=O)O)c4cc(O)cc(O)c4-c4cc3ccc4O)[C@H](O)c3ccc(c(Cl)c3)Oc3cc2cc(c3O)Oc2ccc(cc2Cl)[C@H]1O

Compound: H-IRIKIRIK-OH
MIC (Staphylococcus aureus [7]): 8 µg/mL | MIC (Staphylococcus aureus [8]): 8 µg/mL

Ka [9]: 7.3 10^4/M | Ka [5]: 6.9 10^4/M
Compound: CN[C@H](CC(C)C)C(=O)N[C@H]1C(=O)N[C@@H](CC(N)=O)C(=O)N[C@H]2C(=N)N[C@H]3C(=O)N[C@H](C(=O)N[C@H](C(=O)O)c4cc(O)cc(O)c4-c4cc3ccc4O)[C@H](O)c3ccc(c(Cl)c3)Oc3cc2cc(c3O)Oc2ccc(cc2Cl)[C@H]1O

Compound: CCCCCCCCCCN[C@@]1(C)C[C@H](O[C@H]2[C@H](Oc3c4cc5cc3Oc3ccc(cc3Cl)[C@@H](O)[C@@H](NC(=O)[C@@H](CC(C)C)NC)C(=O)N[C@@H](CC(N)=O)C(=O)N[C@H]5C(=O)N[C@H]3C(=O)N[C@H](C(=O)N[C@H](C(=O)ONCCCNC(=O)[C@H](O)[C@@H](O)[C@H](O[C@@H]5O[C@H](CO)[C@H](O)[C@H](O)[C@H]5O)[C@H](O)CO)c5cc(O)cc(O)c5-c5cc3ccc5O)[C@H](O)c3ccc(c(Cl)c3)O4)O[C@H](CO)[C@@H](O)[C@@H]2O)O[C@@H](C)[C@H]1O
MIC (Enterococcus faecalis [10]): 0.7 µM (≈ 1.4 µg/mL) | MIC (Enterococcus faecium [4]): 1 µM | MIC (Enterococcus faecium [4]; [18]): 0.7 µM | Ka [5]: 6 10^4/M

Compound: CN[C@H](CC(C)C)C(=O)N[C@H]1C(=O)N[C@@H](CC(N)=O)C(=O)N[C@H]2C(=O)N[C@H]3C(=O)N[C@H](C(=O)N[C@H](C(=O)O)c4cc(O)c(CN[C@H]5C(O)O[C@H](CO)[C@H](O)[C@@H]5O)c(O)c4-c4cc3ccc4O)[C@H](O)c3ccc(c(Cl)c3)Oc3cc2cc(c3O[C@@H]2O[C@H](CO)[C@@H](O)[C@H](O)[C@H]2O[C@H]2C[C@](C)(NCc3ccc(-c4ccc(Cl)cc4)cc3)[C@H](O)[C@H](C)O2)Oc2ccc(cc2Cl)[C@H]1O (some centres not stated)
MIC (Enterococcus faecium [4]): 0.25 µg/mL | MIC (Enterococcus faecium [4]; [18]): 2 µg/mL | MIC (Enterococcus faecium [11]): 4 µg/mL | MIC (Staphylococcus aureus [12]): 0.12 µg/mL (≈ 0.0652 µM)

Ka [9]: 4.8 10^3/M | Ka [5]: 5.2 10^3/M
Compound: CN[C@H](CC(C)C)C(=O)N[C@H]1C(=O)N[C@@H](CC(N)=O)C(=O)N[C@H]2CN[C@H]3C(=O)N[C@H](C(=O)N[C@H](C(=O)O)c4cc(O)cc(O)c4-c4cc3ccc4O)[C@H](O)c3ccc(c(Cl)c3)Oc3cc2cc(c3O)Oc2ccc(cc2Cl)[C@H]1O

MIC (Staphylococcus aureus [6]): 1 µM
Compound: CN[C@H](CC(C)C)C(=O)N[C@H]1C(=O)N[C@@H](CC(N)=O)C(=O)N[C@H]2C(=O)N[C@H]3C(=O)N[C@H](C(=O)N[C@H](C(=O)NC[C@H]4OB(O)c5ccccc54)c4cc(O)cc(O)c4-c4cc3ccc4O)[C@H](O)c3ccc(c(Cl)c3)Oc3cc2cc(c3O[C@@H]2O[C@H](CO)[C@@H](O)[C@H](O)[C@H]2O[C@H]2C[C@](C)(N)[C@H](O)[C@H](C)O2)Oc2ccc(cc2Cl)[C@H]1O

MIC (Pseudomonas aeruginosa [13]): 2 µg/mL
Compound: POLYMYXIN B

Compound: CC(=O)N[C@@H]1[C@H](Oc2c3cc4cc2Oc2ccc(cc2Cl)[C@@H](O[C@@H]2O[C@@H](CO)[C@@H](O)[C@H](O)[C@@H]2NC(C)=O)[C@@H]2NC(=O)[C@H](NC(=O)[C@@H]4NC(=O)[C@H]4NC(=O)[C@@H](Cc5ccc(c(Cl)c5)O3)NC(=O)[C@H](N)c3ccc(O)c(c3)Oc3cc(O)cc4c3)c3ccc(O)c(c3)-c3c(O[C@H]4O[C@H](CO)[C@@H](O)[C@@H](O)[C@@H]4O)cc(O)cc3[C@@H](C(=O)O)NC2=O)O[C@@H](CO)[C@@H](O)[C@@H]1O
MIC (Pseudomonas aeruginosa [14]): 256 µg/mL (≈ 145 µM) | fractional inhibitory concentration index (FICI) (Pseudomonas aeruginosa [15]): <0.5

Compound: CN[C@H](CC(C)C)C(=O)N[C@H]1C(=O)N[C@@H](CC(N)=O)C(=O)N[C@H]2C(=O)N[C@H]3C(=O)N[C@H](C(=O)N[C@H](C(=O)O)c4cc(O)c(CNCCO[C@@H]5O[C@H](CO)[C@H](O)[C@H](O)[C@H]5O)c(O)c4-c4cc3ccc4O)[C@H](O)c3ccc(c(Cl)c3)Oc3cc2cc(c3O[C@@H]2O[C@H](CO)[C@@H](O)[C@H](O)[C@H]2O[C@H]2C[C@](C)(NCc3ccc(-c4ccc(C(F)(F)F)cc4)cc3)[C@H](O)[C@H](C)O2)Oc2ccc(cc2Cl)[C@H]1O
MIC (Enterococcus faecium [4]): ≤ 0.06 µg/mL | MIC (Enterococcus faecium [4]; [18]): 1 µg/mL | MIC (Enterococcus faecium [11]): 2 µg/mL | MIC (Staphylococcus aureus [12]): 0.25 µg/mL (≈ 0.13 µM)

Compound: CCCCCCCC[N+](C)(C)CCCNC(=O)[C@H]1NC(=O)[C@H]2NC(=O)[C@H](NC(=O)[C@@H]3NC(=O)[C@H](CC(N)=O)NC(=O)[C@H](NC(=O)[C@@H](CC(C)C)NC)[C@H](O)c4ccc(c(Cl)c4)Oc4cc3cc(c4O[C@@H]3O[C@H](CO)[C@@H](O)[C@H](O)[C@H]3O[C@H]3C[C@](C)(N)[C@H](O)[C@H](C)O3)Oc3ccc(cc3Cl)[C@H]2O)c2ccc(O)c(c2)-c2c(O)cc(O)cc21
MIC (Staphylococcus aureus [16]): 0.3 µM | MIC (Enterococcus faecium [4]; [18]): 12 µM | MIC (Staphylococcus aureus [2]): 0.4 µM | MIC (Acinetobacter baumannii): 7 µM | MIC (Enterobacter cloacae): > 100 µM

Compound: CCCCCCCCN(CCCNC(=O)[C@H]1NC(=O)[C@H]2NC(=O)[C@H](NC(=O)[C@@H]3NC(=O)[C@H](CC(N)=O)NC(=O)[C@H](NC(=O)[C@@H](CC(C)C)NC)[C@H](O)c4ccc(c(Cl)c4)Oc4cc3cc(c4O)Oc3ccc(cc3Cl)[C@H]2O)c2ccc(O)c(c2)-c2c(O)cc(O)cc21)CCCNC(=O)[C@H]1NC(=O)[C@H]2NC(=O)[C@H](NC(=O)[C@@H]3NC(=O)[C@H](CC(N)=O)NC(=O)[C@H](NC(=O)[C@@H](CC(C)C)NC)[C@H](O)c4ccc(c(Cl)c4)Oc4cc3cc(c4O)Oc3ccc(cc3Cl)[C@H]2O)c2ccc(O)c(c2)-c2c(O)cc(O)cc21
MIC (Enterococcus faecium [4]; [18]): 2.5 µM | MIC (Staphylococcus aureus [6]): 0.6 µM | Ka [9]: 1 10^5/M | Ka [5]: 5.7 10^3/M
